Results published in ChEMBL document CHEMBL1147052, “Innate immunity and transcription of MGAT-III and Toll-like receptors in Alzheimer's disease patients are improved by bisdemethoxycurcumin” (Proc Natl Acad Sci U S A, 2007).
Calls of active or inactive are those of the source.

How the values were obtained:
Type in all cases: functional, cell-based
Conditions in all cases: Homo sapiens
Macrophage = assay: Induction of amyloid beta phagocytosis in macrophages from Alzheimer's disease patient at 0.1 uM
PBMC [1] = assay: Upregulation of MGAT3 transcription in PBMC from Alzheimer's disease patient
PBMC [2] = assay: Upregulation of TLR transcription in PBMC from Alzheimer's disease patient
PBMC [3] = assay: Increase in TLR2 protein expression in PBMC from Alzheimer's disease patient at 0.1 uM by flow cytometry
PBMC [4] = assay: Increase in TLR3 protein expression in PBMC from Alzheimer's disease patient at 0.1 uM by flow cytometry
PBMC [5] = assay: Increase in TLR4 protein expression in PBMC from Alzheimer's disease patient at 0.1 uM by flow cytometry

Measured: Activity

O=C(/C=C/c1ccc(O)cc1)CC(=O)/C=C/c1ccc(O)cc1
active: all assays above
